# Test results as given in patent publication US20200163984A1, “USE OF ISOVALERYL SPIRAMYCIN I, II AND/OR III IN MANUFACTURING MEDICAMENT FOR TREATING AND/OR PREVENTING TUMOR, AND MEDICAMENT” (SHENYANG FUYANG PHARMACEUTICAL TECHNOLOGY CO., LTD., priority 2017, published 2020).
# How the values were obtained:
# [1] = system: transplanted tumor of human non-small cell lung cancer cell A549; assay: A549 transplanted tumor in nude mice
# Protocol: A549 cells in a logarithmic growth phase were taken and subjected to a trypan blue exclusion experiment showing that the cell viability was more than 95%, then the cells were subjected to trypsinization, centrifugation, and supernatant removal. Then cell concentration was adjusted to 1×10^7/ml with matrigel, then each nude mouse was inoculated subcutaneously with 0.2 ml of cells at its right armpit and recorded as the first day of inoculation. When the tumor grows to be greater than or equal to 100 mm^3, the mice were randomly divided into 11 groups with 6 mice in each group: a model group, a cyclophosphamide group, isovaleryl spiramycin I groups with doses of 25, 50 and 100 mg/kg, isovaleryl spiramycin II groups with doses of 25, 50 and 100 mg/kg, and isovaleryl spiramycin III groups with doses of 25, 50 and 100 mg/kg. Each group was continuously administered intragastrically for 30 days with a dose of 20 ml/kg. The mice were sacrificed the next day after drug withdrawal and the indicators were tested. The long diameter and short diameter of the tumor, and the body weight of each mouse were recorded every 3 days from drug administration to nude mouse sacrifice.
# The body weight of the nude mice and the long diameter (a) and short diameter (b) of the transplanted tumor were measured every 3 days, and the tumor volume (v), relative tumor volume (RTV) and relative tumor proliferation rate (T/C) are calculated respectively according to the following formulas, wherein V=a×b^2/2; RTV=V/V0 (V0 is the tumor volume before administration, V is the tumor volume before sacrifice), and T/C (%)=treatment group RTV/model control group RTV×100%.
# Each mouse was weighed and sacrificed. After the tumor was completely stripped off from the body of the mouse, the non-tumor tissues such as blood stains and fat were removed to weigh the tumor and calculate the tumor growth inhibition rate. The average tumor weight of each group of mice is used as an indicator of efficacy. Tumor growth inhibition rate (%)=(1−the average tumor weight of the treatment group/the average tumor weight of the model group)×100%.
# [2] = Thymus index and spleen index of H22 liver cancer tumor-bearing mice
# Protocol: (§1) In the H22 liver cancer model, the mice inoculated with the tumor were randomly divided into groups with 10 mice in each group on the next day of inoculation. The groups included: a model control group, a positive drug cyclophosphamide control group (CTX, 26 mg/kg), isovaleryl spiramycin I groups with doses of 13, 26 and 52 mg/kg; isovaleryl spiramycin II groups with doses of 13, 26 and 52 mg/kg; isovaleryl spiramycin III groups with doses of 13, 26 and 52 mg/kg. Each group was continuously administered intragastrically for 7 days with a dose of 20 ml/kg.
# [3] = Thymus index and spleen index of Lewis lung cancer tumor-bearing mice; settings: for Spleen Index (%) / Thymus Index (%): n = 6
# Protocol: as §1, with “the Lewis lung” for “the H22 liver”, “group” for “group on”, “(CTX, 30” for “(CTX, 26”, “for 15” for “for 7”
# [4] = system: transplanted tumor of mouse Lewis lung cancer; assay: Transplanted tumor of mouse Lewis lung cancer; settings: for Tumor Volume (mm3) (d 1) / Tumor Volume (mm3) (d30) / Relative Tumor Proliferation Rate (T/C) / Relative Tumor Volume (RTV): title prints KM mouse H22 cells; for Tumor Volume (mm3) (d30): d 30
# Protocol: Lewis lung cancer cells were cultured in a RPMI 1640 culture medium containing 10% fetal bovine serum at 37° C. in a 5% CO2 incubator. The cells in the logarithmic growth phase were subjected to trypsinization with 0.25% trypsin, then the cells were collected to be centrifugated to remove the obtained supernatant, then were washed twice with sterile normal saline. […] The Lewis cells were adjusted to 1×10^7/mL in concentration and stored in ice water. 75% ethanol was used to disinfect the skin under the right armpits of the mice, and each C57BL/6 mouse was soon inoculated subcutaneously with 0.2 ml of the cells at its right armpit.
# as §1, with “the Lewis lung” for “the H22 liver”, “group” for “group on”, “(CTX, 30” for “(CTX, 26”, “for 15” for “for 7”
# The tumor-bearing mice were weighed and sacrificed the next day after the last administration. The subcutaneous tumors were dissected and weighed. The average tumor weight of each group is calculated, and the tumor inhibition rate is calculated.
# Tumor inhibition rate=(1−T/C)×100%
# T: average tumor weight of the drug-administered group; C: average tumor weight of the blank control group.
# [5] = A549, high dose (100 mg/kg in method) i.g. 30 days
# [6] = A549, low dose (25 mg/kg in method) i.g. 30 days
# [7] = A549, medium dose (50 mg/kg in method) i.g. 30 days
smiles,measurement,setting,value
"O=P1(N(CCCl)CCCl)NCCCO1 (centres unmarked) [Cyclophosphamide, cyclophosphamide, reference compound]",Inhibition Rate (%),"[1]; A549 nude mice, 30 mg/kg",70.59%
same,Relative Tumor Proliferation Rate (T/C),"[1]; A549 nude mice, 30 mg/kg",39.73%
same,Relative Tumor Volume (RTV),"[1]; A549 nude mice, 30 mg/kg",9.47 ± 2.91
same,Tumor Weight,"[1]; A549 nude mice, 30 mg/kg",0.70 ± 0.39 g
same,Body Weight (g) (d1),"[1]; A549 nude mice, 30 mg/kg, d1",21.89 ± 1.22 g
same,Tumor Volume (mm3) (d 1),"[1]; A549 nude mice, 30 mg/kg, d1",115.15 ± 10.00 mm3
same,Body Weight (g) (d30),"[1]; A549 nude mice, 30 mg/kg, d30",19.27 ± 1.49 g
same,Tumor Volume (mm3) (d30),"[1]; A549 nude mice, 30 mg/kg, d30",733.89 ± 352.79 mm3
same,thymus index and spleen index compared with the control group,"[2]; H22 tumor-bearing mice, cyclophosphamide, P<0.01",significantly lower
same,Spleen Index (%),[2]; dose 26 mg/kg,0.38 ± 0.09 %
same,Thymus Index (%),[2]; dose 26 mg/kg,0.04 ± 0.02 %
same,spleen index compared with the control group,"[3]; Lewis tumor-bearing mice, cyclophosphamide, P<0.01",significantly lower
same,Spleen Index (%),[3]; dose 26 mg/kg,0.48 ± 0.09 %
same,Thymus Index (%),[3]; dose 26 mg/kg,0.06 ± 0.02 %
same,Inhibition Rate (%),[4]; dose 30 mg/kg,76.43%
same,Tumor Weight,[4]; dose 30 mg/kg,0.38 ± 0.07 g
same,Body Weight (g) (d1),"[4]; dose 30 mg/kg, d 1",19.62 ± 1.01 g
same,Tumor Volume (mm3) (d 1),"[4]; dose 30 mg/kg, d 1",104.35 ± 30.89 mm3
same,Body Weight (g) (d 15),"[4]; dose 30 mg/kg, d 15",21.38 ± 0.67 g
same,Tumor Volume (mm3) (d30),[4]; dose 30 mg/kg,371.39 ± 112.68 mm3
same,Relative Tumor Proliferation Rate (T/C),[4]; dose 30 mg/kg,24.55
same,Relative Tumor Volume (RTV),[4]; dose 30 mg/kg,3.93 ± 1.86
same,tumor inhibition rate,"[4]; mouse Lewis lung cancer, CTX 30 mg/kg i.g. 15 days",76.43%
"CO[C@@H]1[C@@H](O[C@@H]2O[C@H](C)[C@@H](O[C@H]3C[C@@](C)(O)[C@@H](OC(=O)CC(C)C)[C@H](C)O3)[C@H](N(C)C)[C@H]2O)[C@@H](CC=O)C[C@@H](C)[C@@H](O[C@H]2CC[C@H](N(C)C)[C@@H](C)O2)/C=C/C=C/C[C@@H](C)OC(=O)C[C@H]1O [Isovaleryl spiramycin I, isovaleryl spiramycin I]",Relative Tumor Proliferation Rate (T/C),[1]; [5],28.35%
same,tumor growth inhibition rate,[1]; [5],69.52%
same,Relative Tumor Proliferation Rate (T/C),[1]; [6],67.18%
same,tumor growth inhibition rate,[1]; [6],24.00%
same,tumor volume and relative tumor volume compared with the model group,"[1]; A549, low, medium and high doses, P<0.05",significantly lower
same,Relative Tumor Proliferation Rate (T/C),[1]; [7],41.93%
same,tumor growth inhibition rate,[1]; [7],58.10%
same,Inhibition Rate (%),"[1]; A549 nude mice, 25 mg/kg",24.00%
same,Relative Tumor Proliferation Rate (T/C),"[1]; A549 nude mice, 25 mg/kg",67.18%
same,Relative Tumor Volume (RTV),"[1]; A549 nude mice, 25 mg/kg",10.91 ± 2.63
same,Tumor Weight,"[1]; A549 nude mice, 25 mg/kg",1.82 ± 0.19 g
same,Tumor Volume (mm3) (d 1),"[1]; A549 nude mice, 25 mg/kg, d1",111.89 ± 12.17 mm3
same,Tumor Volume (mm3) (d30),"[1]; A549 nude mice, 25 mg/kg, d30",1227.24 ± 329.84 mm3
same,Inhibition Rate (%),"[1]; A549 nude mice, 50 mg/kg",58.10%
same,Relative Tumor Proliferation Rate (T/C),"[1]; A549 nude mice, 50 mg/kg",39.42%
same,Relative Tumor Volume (RTV),"[1]; A549 nude mice, 50 mg/kg",6.40 ± 1.75
same,Tumor Weight,"[1]; A549 nude mice, 50 mg/kg",1.00 ± 0.44 g
same,Tumor Volume (mm3) (d 1),"[1]; A549 nude mice, 50 mg/kg, d1",119.73 ± 5.73 mm3
same,Tumor Volume (mm3) (d30),"[1]; A549 nude mice, 50 mg/kg, d30",750.44 ± 220.77 mm3
same,Inhibition Rate (%),"[1]; A549 nude mice, 100 mg/kg",69.52%
same,Relative Tumor Proliferation Rate (T/C),"[1]; A549 nude mice, 100 mg/kg",28.35%
same,Relative Tumor Volume (RTV),"[1]; A549 nude mice, 100 mg/kg",4.60 ± 3.69
same,Tumor Weight,"[1]; A549 nude mice, 100 mg/kg",0.73 ± 0.45 g
same,Tumor Volume (mm3) (d 1),"[1]; A549 nude mice, 100 mg/kg, d1",110.27 ± 11.43 mm3
same,Tumor Volume (mm3) (d30),"[1]; A549 nude mice, 100 mg/kg, d30",475.83 ± 355.37 mm3
same,mouse weight compared with the model group,"[1]; mouse, in vivo",no significant changes
same,Body Weight (g) (d1),"[1]; mouse, in vivo, 25 mg/kg",21.54 ± 1.27 g
same,Body Weight (g) (d30),"[1]; mouse, in vivo, 25 mg/kg",24.20 ± 1.33 g
same,Body Weight (g) (d1),"[1]; mouse, in vivo, 50 mg/kg",21.48 ± 1.46 g
same,Body Weight (g) (d30),"[1]; mouse, in vivo, 50 mg/kg",25.56 ± 1.67 g
same,Body Weight (g) (d1),"[1]; mouse, in vivo, 100 mg/kg",21.36 ± 1.82 g
same,Body Weight (g) (d30),"[1]; mouse, in vivo, 100 mg/kg",24.47 ± 1.98 g
same,Spleen Index (%),[2]; dose 13 mg/kg,0.72 ± 0.07%
same,Thymus Index (%),[2]; dose 13 mg/kg,0.15 ± 0.07%
same,Spleen Index (%),[2]; dose 26 mg/kg,0.60 ± 0.15%
same,Thymus Index (%),[2]; dose 26 mg/kg,0.14 ± 0.01%
same,Spleen Index (%),[2]; dose 52 mg/kg,0.86 ± 0.25 %
same,Thymus Index (%),[2]; dose 52 mg/kg,0.12 ± 0.04%
same,Spleen Index (%),[3]; dose 13 mg/kg,0.72 ± 0.21%
same,Thymus Index (%),[3]; dose 13 mg/kg,0.12 ± 0.03%
same,Spleen Index (%),[3]; dose 26 mg/kg,0.62 ± 0.15%
same,Thymus Index (%),[3]; dose 26 mg/kg,0.13 ± 0.04%
same,Spleen Index (%),[3]; dose 52 mg/kg,0.77 ± 0.14 %
same,Thymus Index (%),[3]; dose 52 mg/kg,0.12 ± 0.06%
same,growth of Lewis lung cancer in mice,"[4]; 13, 26 and 52 mg/kg i.g. 15 days",significantly inhibit
same,Tumor Volume (mm3) (d 1),"[4]; dose 12.5 mg/kg, d 1",104.68 ± 20.89 mm3
same,Tumor Volume (mm3) (d30),[4]; dose 12.5 mg/kg,955.73 ± 330.24 mm3
same,Relative Tumor Proliferation Rate (T/C),[4]; dose 12.5 mg/kg,57.56
same,Relative Tumor Volume (RTV),[4]; dose 12.5 mg/kg,9.22 ± 2.95
same,Inhibition Rate (%),[4]; dose 13 mg/kg,46.94%
same,Tumor Weight,[4]; dose 13 mg/kg,0.85 ± 0.24 g
same,Tumor Volume (mm3) (d 1),"[4]; dose 25 mg/kg, d 1",104.31 ± 19.76 mm3
same,Tumor Volume (mm3) (d30),[4]; dose 25 mg/kg,756.20 ± 145.84 mm3
same,Relative Tumor Proliferation Rate (T/C),[4]; dose 25 mg/kg,45.51
same,Relative Tumor Volume (RTV),[4]; dose 25 mg/kg,7.29 ± 0.82
same,Inhibition Rate (%),[4]; dose 26 mg/kg,62.97%
same,Tumor Weight,[4]; dose 26 mg/kg,0.59 ± 0.06 g
same,Tumor Volume (mm3) (d 1),"[4]; dose 50 mg/kg, d 1",103.79 ± 19.55 mm3
same,Tumor Volume (mm3) (d30),[4]; dose 50 mg/kg,465.26 ± 52.94 mm3
same,Relative Tumor Proliferation Rate (T/C),[4]; dose 50 mg/kg,29.05
same,Relative Tumor Volume (RTV),[4]; dose 50 mg/kg,4.65 ± 1.27
same,Inhibition Rate (%),[4]; dose 52 mg/kg,71.83%
same,Tumor Weight,[4]; dose 52 mg/kg,0.45 ± 0.14 g
same,Body Weight (g) (d1),"[4]; mouse, in vivo, 13 mg/kg",19.93 ± 1.20 g
same,Body Weight (g) (d 15),"[4]; mouse, in vivo, 13 mg/kg",22.70 ± 0.87 g
same,Body Weight (g) (d1),"[4]; mouse, in vivo, 26 mg/kg",19.45 ± 0.68 g
same,Body Weight (g) (d 15),"[4]; mouse, in vivo, 26 mg/kg",23.43 ± 1.41 g
same,Body Weight (g) (d1),"[4]; mouse, in vivo, 52 mg/kg",19.87 ± 1.17 g
same,Body Weight (g) (d 15),"[4]; mouse, in vivo, 52 mg/kg",23.25 ± 0.43 g
